Results from patent US20070178544A1, “Anti fk778antibodies and high sensitive immunoassay methods” (priority 2004, published 2007).

experiment: Selection of an immunogen: titer of antibody in sera of immunized mice; format: in vivo; details: immunogen conjugated with bovine thyroglobulin, with FCA, Balb/c mice; four (FR267471, FR266831) or seven (FR270531) immunizations
Protocol: To obtain the selective antibody against FK778, two kinds of immunogens which were conjugated (FR267471 and FR266831) with bovine thyroglobulin (Sigma-Aldrich Corp.) mixed with Freund's complete adjuvant (FCA) (Difco) were immunized in hyperimmune Balb/c mice. After four times immunizations, the titer of antibody against the FR267471-BSA or the FR266831-BSA in sera was measured by enzyme-linked immunosorbent assay. […] To obtain immunogens having higher titer than the two immunogens, another type of immunogen FR270531 was synthesized. […] Accordingly, the present inventors have used FR270531 as an immunogen to produce antibodies directed to FK778, and FR267471 and FR266831 as positive and negative control to select the FK778 antibody specifically binding to the FK778 substance.

Row | Structure (SMILES) | titer of antibody in sera
1 | N#C/C(C(=O)Nc1ccc(C(F)(F)F)cc1)=C(/O)CCCC(=O)O [FR266831, (5Z)-6-cyano-5-hydroxy-7-oxo-7-{[4-(trifluoromethyl)phenyl]amino}-5-heptenoic acid] | not sufficient
2 | C#CCC/C(O)=C(\C#N)C(=O)Nc1ccc(OCCCCCC(=O)O)cc1 [FR267471, 6-(4-{[(2Z)-2-cyano-3-hydroxy-2-hepten-6-ynoyl]amino}phenoxy)hexanoic acid] | not sufficient
3 | C#CCC/C(O)=C(\C#N)C(=O)Nc1ccc(OCCCCCC(=O)Oc2c(F)c(F)c(F)c(F)c2F)cc1 [FR270531, pentafluorophenyl 6-(4-{[(2Z)-2-cyano-3-hydroxy-2-hepten-6-ynoyl]amino}phenoxy)hexanoate] | higher than those of FR267471 and FR266831
